Reference: patent publication US20120277257A1, “Methods of Treating Diseases, Pharmaceutical Compositions, and Pharmaceutical Dosage Forms” (MYREXIS, INC., priority 2009, published 2012)

Columns and labels:
[1] = tested on: Hsp70 RNA; test: Hsp70 RNA induction in liver and tumor of N-87 xenografted mice (qRT-PCR); assay type: in vivo; conditions: single oral dose 200 mg/kg
Description: Xenografted mice bearing N-87 tumors (median volume ˜425 mm^3) were given a single oral dose of Compound 1 (200 mg/kg). Blood, tumor and liver samples (n=6) were collected at 0.25, 0.5, 1, 2, 4, 8, 12, 24, 36 and 48 h post-dose and used to determine Compound 1 concentrations in the plasma and Hsp70 RNA levels in tumor and liver samples (See FIG. 6). Hsp70 RNA levels were determined by qRT-PCR.

[2] = tested on: NCI-N87 Her2+ gastric cancer; test: NCI-N87 (Her2+) gastric cancer xenograft in athymic nude mice; assay type: in vivo
Description: The efficacy of Compound 1 was compared to that of SNX-5422 (Serenex, Pfizer, Inc.) on the growth of NCI-N87 (Her2+) human gastric cancer cells as a xenograft in athymic nude mice model. Animals were dosed with either 200 mg/kg of Compound 1 on days 1 through 21 or 40 mg/kg of SNX-5422 thrice weekly for three weeks. Tumor volumes and body weights were determined from Days 1 to 39.
Five million NCI-N87 cells were implanted subcutaneously in the right flank of female nude mice (Hsd:athymic nude-Foxn1^nu). When the median tumor volume was approximately 123 mm^3, mice were randomized into three cohorts of ten animals. One cohort was dosed orally with vehicle, one cohort was dosed orally with Compound 1 (200 mg/kg) formulated in vehicle, and one cohort was dosed orally with SNX-5422 (40 mg/kg) formulated in dimethylacetamide/polyethylene glycol 300. Vehicle and Compound 1 were administered on days 1-21 and SNX-5422 was administered thrice weekly on Days 1, 3, 5, 8, 10, 12, 15, 17 and 19. The mice were observed daily for mortality and signs of toxicity.
Xenografted mice bearing N-87 tumors (median volume ˜125 mm^3) were dosed orally with Compound 1 for three weeks with the dosing schedules indicated in FIG. 4.
Additionally, xenografted mice bearing N-87 tumors (median volume ˜115 mm^3) were dosed orally with Compound 1 for twenty-one days at 200 mg/kg, once daily or 100 mg/kg, twice-daily as indicated in FIG. 5. Tumor growth inhibition (TGI) was monitored up to Day 39.

[3] = tested on: NCI-H69 small cell lung cancer; test: NCI-H69 small cell lung cancer xenograft; assay type: in vivo, mice; conditions: 200 mg/kg oral, daily for 27 days
[4] = tested on: NCI-N87 Her2+ gastric cancer; test: NCI-N87 (Her2+) gastric cancer xenograft in athymic nude mice; assay type: in vivo; conditions: for TGI (tumor growth inhibition): daily for 21 days
[5] = tested on: Colo205 colon cancer; test: Colo205 colon cancer xenograft; assay type: in vivo, mice; conditions: daily for 21 days
[6] = tested on: multiple murine xenograft models; test: Murine xenograft models, summary across models; assay type: in vivo, mice
[7] = tested on: NCI-H460 non-small cell lung cancer; test: NCI-H460 non-small cell lung cancer xenograft; assay type: in vivo, mice; conditions: 200 mg/kg oral, daily for 21 days
[8] = tested on: K-562 erythroleukemia; test: K-562 erythroleukemia xenograft; assay type: in vivo, mice; conditions: daily for 18 days

With `C[C@H](O)C(=O)N1CCC(CCn2c(Sc3cc4c(cc3Br)OCO4)nc3c(N)ncnc32)CC1` [Compound 1, (2S)-1-[4-(2-{6-amino-8-[(6-bromo-1,3-benzodioxol-5-yl)thio]-9H-purin-9-yl}ethyl)piperidin-1-yl]-1-oxopropan-2-ol] the “Hsp70 RNA induction in liver” value ([1]; 4 hours post-dose) was ~70 fold, the “Hsp70 RNA induction in tumor tissue” value ([1]; 4 hours post-dose) was ~110 fold and the “time at which Hsp70 RNA induction reverts to baseline” value ([1]; post-dose) was ≤ 12 h. For the same compound, the tumor regression ([2]; 200 mg/kg oral, 5-days-on/2-days-off, after 3 cycles) was 44% regression after 3 cycles, the tumor regression ([2]; 200 mg/kg oral, QOD (once every-other-day) for three weeks, Day 21) was 7% and the tumor regression ([2]; 200 mg/kg oral, daily for 21 days, Day 21 (dosing schedule study)) was 40%. The “decrease in median tumor volume” value ([2]; 200 mg/kg oral, days 1-21, by day 21) was 40%, the “TGI (tumor growth inhibition)” value ([2]; 200 mg/kg oral, twice weekly for three weeks, Day 21) was 100% and the “TGI (tumor growth inhibition)” value ([2]; 200 mg/kg oral, weekly (Days 1, 8, 15), Day 21, p = 0.1) was 54% TGI (p = 0.1) Day 21. For the same compound, the “TGI (tumor growth inhibition)” value ([2]; 400 mg/kg oral, twice weekly for three weeks, Day 21) was 95%, the “tumor growth inhibition compared with SNX-5422” value ([2]; Compound 1 200 mg/kg daily vs SNX-5422 40 mg/kg thrice weekly) was “as effective as SNX-5422” and the “time to tumor volume 1,500 mm^3” value ([3]; p = 0.01) was “Extended time to 1,500 mm^3”. The “treated mice with tumors <1,500 mm^3” value ([3]; compared to 2/9 for vehicle arm) was “(p = 0.01); 8/10 treated mice”, the “TGI (tumor growth inhibition)” value ([4]; 100 mg/kg oral, Day 21, p = 0.003) was 82% TGI (p = 0.003) Day 21 and the “TGI (tumor growth inhibition)” value ([4]; 125 mg/kg oral) was 100% TGI (125 mg/kg). The tumor regression ([4]; 200 mg/kg oral, daily for 21 days (50, 75, 125, 200 mg/kg study)) was 50% regression (200 mg/kg);, the “TGI (tumor growth inhibition)” value ([5]; 150 mg/kg oral, p = 0.3) was 72% TGI (p = 0.3) 150 mg/kg; and the “TGI (tumor growth inhibition)” value ([5]; 200 mg/kg oral, p = 0.03) was 87% TGI (p = 0.03) 200 mg/kg. For the same compound, the “tumor regression, maximum over models” value ([6]; 200 mg/kg oral, various xenograft models) was “up to 50%”, the “weight loss of animals” value ([6]; xenografted mice dosed orally with Compound 1) was “no significant weight loss” and the “time to tumor volume 1,500 mm^3” value ([7]; p = 0.006) was “extended”. For the same compound, the “TGI (tumor growth inhibition)” value ([7]; p = 0.05) was 61%, the “treated mice with tumors <1,500 mm^3” value ([7]; compared to 1/10 for vehicle arm) was 4/8 treated mice have tumors and the “TGI (tumor growth inhibition)” value ([8]; 150 mg/kg oral, p = 0.14) was 82% TGI (p = 0.14) 150 mg/kg,. For the same compound, the “TGI (tumor growth inhibition)” value ([8]; 200 mg/kg oral, p = 0.05) was 97% TGI (p = 0.05).
